# In patent US12534469B2 (CHILDREN'S HOSPITAL MEDICAL CENTER, priority 2020, dated 2026):
# Like-named read-outs stand apart in the source and are kept apart here.
# What was measured:
# IRAK1 = target: T1, IRAK1 (Homo sapiens, UniProt P51617); test: RBC HotSpot Kinase Assay, IRAK1; format: biochemical
# T1 construct: purchased Reaction Biology (RBC HotSpot Kinase Assay)
# Outline: (§1)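 Radiometric filter-binding (HotSpot) activity assay on isolated recombinant kinase, possibly truncated or catalytic domain only, in 20 mM Hepes pH 7.5, 10 mM MgCl2, 1 mM EGTA, 2 mM DTT, 1% DMSO. Compound preincubated 20 min with kinase and substrate, then ^33P-ATP added. Reaction 2 h at room temperature, read by P81 filter binding.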
# FLT3 = target: T2, FLT3 (Homo sapiens, UniProt P36888); test: RBC HotSpot Kinase Assay, FLT3; format: biochemical
# T2 construct: purchased Reaction Biology (RBC HotSpot Kinase Assay)
# T2 sequence (P36888 564-958 limits assumed): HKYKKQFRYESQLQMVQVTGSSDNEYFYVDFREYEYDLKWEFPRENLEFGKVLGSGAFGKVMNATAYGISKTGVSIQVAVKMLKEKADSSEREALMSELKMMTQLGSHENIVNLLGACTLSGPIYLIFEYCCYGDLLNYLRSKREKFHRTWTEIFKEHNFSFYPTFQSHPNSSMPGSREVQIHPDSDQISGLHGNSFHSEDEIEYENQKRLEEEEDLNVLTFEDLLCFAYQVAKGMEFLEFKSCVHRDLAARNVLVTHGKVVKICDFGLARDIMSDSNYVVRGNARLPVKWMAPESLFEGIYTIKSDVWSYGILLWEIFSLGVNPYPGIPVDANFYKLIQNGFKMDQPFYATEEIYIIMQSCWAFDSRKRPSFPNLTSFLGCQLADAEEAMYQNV
# Outline: as §1
# THP-1-Blue NF-κB cells = test: NF-kB SEAP reporter assay in THP-1-Blue NF-κB cells; format: cell-based; details: 24 hours
# Protocol: THP-1-Blue NF-κB cells (InvivoGen) carrying a stable integrated NF-κB-inducible secreted embryonic alkaline phosphatase (SEAP) reporter construct were plated at a concentration of 1×10^5 cells per well. The cells were stimulated with Pam3CSK4 (1 ng/mL) or hIL1B (1 ng/mL). After 10-20 minutes, the cells were then treated with vehicle (DMSO) or serial dilutions of the test compounds (10 doses tested for each test compound, with a 1:10 dilution series starting at 1 μM or 3 μM) with a final volume of 200 μL for 24 hours at 37° C. After 24 hours, the cells were centrifuged and 20 μL supernatant was incubated with 180 μL QUANTI-Blue reagent at 37° C. for 30-60 minutes. The levels of NF-κB-induced gene expression were measured in a microplate reader at 620 nm.
# MOLM14 D835Y cells = test: MOLM14 D835Y cell viability assay (Cell Titer Glo); format: cell-based
# Protocol: (§2) Both cell lines have activated FLT3 receptors, each of which carry additional resistance mutations in the kinase domain (D835Y and F691L, respectively).
# (§3) MOLM14 D835Y and MOLM14 F691L cells were grown in RPMI-1640 media supplemented with 20% fetal bovine serum (FBS). For viability/cytotoxicity assessments, cells were seeded into 1536-well white polystyrene tissue culture-treated Greiner plates using a Multidrop Combi dispenser (ThermoFisher), in final volume 5 μL of growth media per well, at a density of 1000 cells per well. After cell addition, 23 nL of test compound were transferred into individual wells (22 doses tested for each test compound, with a 1:2 dilution series starting at 10 μM) via a 1536 pin-tool. Bortezomib (final concentration 2.3 μM) was used as a positive control for cell cytotoxicity. Plates were incubated for 48 hours at standard incubator conditions covered by a stainless steel gasketed lid to prevent evaporation. 48 hours post compound addition, 3 μL of Cell Titer Glo (Promega) were added to each well and plates were incubated at room temperature for 15 minutes with the stainless-steel lid in place. Luminescence readings were taken using a Viewlux imager (PerkinElmer) with a 2 second exposure time per plate.
# MOLM14 F691L cells = test: MOLM14 F691L cell viability assay (Cell Titer Glo); format: cell-based
# Protocol: as §2, §3
# IRAK4 = target: T3, IRAK4 (Homo sapiens, UniProt Q9NWZ3); test: RBC HotSpot Kinase Assay, IRAK4; format: biochemical; set-up: purchased Reaction Biology (RBC HotSpot Kinase Assay)
# T3 sequence (Q9NWZ3 1-460): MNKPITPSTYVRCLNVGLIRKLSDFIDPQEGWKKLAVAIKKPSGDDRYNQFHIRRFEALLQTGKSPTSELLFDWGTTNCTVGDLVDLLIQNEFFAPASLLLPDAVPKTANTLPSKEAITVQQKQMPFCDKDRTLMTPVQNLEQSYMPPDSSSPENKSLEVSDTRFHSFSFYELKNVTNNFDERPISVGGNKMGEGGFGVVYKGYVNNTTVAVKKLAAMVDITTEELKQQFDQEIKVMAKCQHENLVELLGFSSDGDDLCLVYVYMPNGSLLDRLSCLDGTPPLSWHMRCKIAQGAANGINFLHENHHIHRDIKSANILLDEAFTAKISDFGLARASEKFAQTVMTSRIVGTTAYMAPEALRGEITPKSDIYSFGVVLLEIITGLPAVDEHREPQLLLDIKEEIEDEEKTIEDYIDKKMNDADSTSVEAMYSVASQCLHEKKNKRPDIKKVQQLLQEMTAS
# Outline: as §1
# [1] = stimulated with Pam3CSK4 (1 ng/mL), read-out: NF-κB Pam3SCK4 IC50
# [2] = stimulated with hIL1B (1 ng/mL), read-out: NF-κB IL1B IC50
# T1 sequence (P51617 whole entry): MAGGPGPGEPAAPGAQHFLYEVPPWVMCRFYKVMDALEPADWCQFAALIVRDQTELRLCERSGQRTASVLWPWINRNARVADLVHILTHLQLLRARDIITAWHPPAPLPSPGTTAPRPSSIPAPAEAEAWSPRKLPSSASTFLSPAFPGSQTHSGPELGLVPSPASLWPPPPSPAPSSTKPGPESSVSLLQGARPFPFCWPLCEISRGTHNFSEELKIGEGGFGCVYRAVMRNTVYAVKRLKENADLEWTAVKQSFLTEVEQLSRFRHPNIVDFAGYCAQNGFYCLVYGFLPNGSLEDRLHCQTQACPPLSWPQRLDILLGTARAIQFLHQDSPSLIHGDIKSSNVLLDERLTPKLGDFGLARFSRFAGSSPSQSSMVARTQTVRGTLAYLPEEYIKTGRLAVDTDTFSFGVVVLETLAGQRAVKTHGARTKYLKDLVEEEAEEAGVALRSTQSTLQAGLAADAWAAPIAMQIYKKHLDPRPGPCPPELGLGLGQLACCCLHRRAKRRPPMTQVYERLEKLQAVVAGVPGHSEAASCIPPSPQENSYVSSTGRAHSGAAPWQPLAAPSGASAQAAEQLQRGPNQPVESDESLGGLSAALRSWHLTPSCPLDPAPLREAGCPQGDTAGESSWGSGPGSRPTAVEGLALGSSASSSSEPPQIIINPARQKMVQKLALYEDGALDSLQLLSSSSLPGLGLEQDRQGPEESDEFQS
Compound,IC50 (IRAK1),IC50 (FLT3),IC50 (THP-1-Blue NF-κB cells; [1]),IC50 (THP-1-Blue NF-κB cells; [2]),"IC50 (MOLM14 D835Y cells; Homo sapiens, MOLM-14, 48 h)","IC50 (MOLM14 F691L cells; Homo sapiens, MOLM-14, 48 h)",IC50 (IRAK4),IC50 (MOLM14 D835Y cells; 48 hours),IC50 (MOLM14 F691L cells; 48 hours)
"COc1cc2ncc(-c3cccc(N[C@H]4CNCC[C@@H]4F)n3)n2nc1C(C)(O)C(F)(F)F (single isomer, unassigned; slow-eluting) [Compound 136]",3.14 µM,< 0.0005 µM,,,,,0.01 µM,0.031 µM,0.344 µM
"COc1cc2ncc(-c3cccc(N[C@H]4CNC[C@@H]4F)n3)n2nc1-c1cnn(C)c1 [Compound 121, N-((3S,4S)-4-fluoropyrrolidin-3-yl)-6-(7-methoxy-6-(1-methyl-1H-pyrazol-4-yl)imidazo[1,2-b]pyridazin-3-yl)pyridin-2-amine]",0.778 µM,0.001 µM,,,0.097 µM,1.37 µM,0.011 µM,,
"COc1cc2ncc(-c3cc(F)cc(N[C@@H]4CCCNC4)n3)n2nc1C1CC1 [Compound 104, (R)-6-(6-cyclopropyl-7-methoxyimidazo[1,2-b]pyridazin-3-yl)-4-fluoro-N-(piperidin-3-yl)pyridin-2-amine]",1.34 µM,< 0.0005 µM,,,0.193 µM,1.15 µM,0.045 µM,,
"COc1cc2ncc(-c3cccc(N[C@@H]4CCCNC4)n3)n2nc1C(C)(O)C(F)(F)F (single isomer, unassigned) [Compound 132]",> 10 µM,0.005 µM,,,,,1.77 µM,0.486 µM,3.44 µM

# Compounds with a lower IC50 (IRAK1), results first:
IC50 (IRAK1),IC50 (FLT3),IC50 (THP-1-Blue NF-κB cells; [1]),IC50 (THP-1-Blue NF-κB cells; [2]),"IC50 (MOLM14 D835Y cells; Homo sapiens, MOLM-14, 48 h)","IC50 (MOLM14 F691L cells; Homo sapiens, MOLM-14, 48 h)",IC50 (IRAK4),IC50 (MOLM14 D835Y cells; 48 hours),IC50 (MOLM14 F691L cells; 48 hours),Compound
0.025 µM,< 0.0005 µM,0.02 µM,0.046 µM,0.077 µM,1.09 µM,< 0.0005 µM,,,"COc1cc2ncc(-c3cccc(N[C@H]4CNC[C@@H]4F)n3)n2nc1C(F)F [Compound 116, 6-(6-(difluoromethyl)-7-methoxyimidazo[1,2-b]pyridazin-3-yl)-N-((3S,4S)-4-fluoropyrrolidin-3-yl)pyridin-2-amine]"
0.07 µM,< 0.0005 µM,0.076 µM,0.216 µM,0.061 µM,0.77 µM,0.002 µM,,,"COc1cc2ncc(-c3cccc(N[C@H]4CNCC[C@@H]4F)n3)n2nc1C(F)F [Compound 118, 6-(6-(difluoromethyl)-7-methoxyimidazo[1,2-b]pyridazin-3-yl)-N-((3S,4S)-4-fluoropiperidin-3-yl)pyridin-2-amine]"
0.218 µM,< 0.0005 µM,,,0.205 µM,1.45 µM,0.016 µM,,,"COc1cc2ncc(-c3cc(F)cc(N[C@H]4CNC[C@@H]4F)n3)n2nc1C1CC1 [Compound 103, 6-(6-cyclopropyl-7-methoxyimidazo[1,2-b]pyridazin-3-yl)-4-fluoro-N-((3S,4S)-4-fluoropyrrolidin-3-yl)pyridin-2-amine]"
